Laboratory results published in US11331299B2, “Medicinal use of serrulatane diterpenes” (The University of Sydney, priority 2016, dated 2022).
Where two headings read alike, the source gives them in different places.

Test system: 280 human cancer cell lines
Test: OncoPanel cell proliferation assay (10-day)
Format: cell-based
Conditions: Homo sapiens; for EC50: read-out: Cell Count EC50; for GI50: read-out: Cell Count GI50; for IC50: read-out: Cell Count IC50
[1] = NCI-H292, NCI-H292, Lung - NSCLC
[2] = NCI-H441, NCIH441, Lung - NSCLC
[3] = NCI-H460, NCI-H460, Lung - NSCLC
[4] = NCI-H520, NCI-H520, Lung - NSCLC
[5] = NCI-H596, NCI-H596, Lung - NSCLC
[6] = NCI-H661, NCI-H661, Lung - NSCLC
[7] = NTERA-2-cl-D1, NTERA-2 cl.D1, Testis
[8] = OVCAR-3, OVCAR3, Female GU - Ovary
[9] = RPMI-7951, RPMI-7951, Skin (Melanoma)
[10] = SAOS-2, SaOS2, Soft Tissue - Osteosarcoma

CC(C)=CCC[C@H](CO)[C@@H]1CC[C@@H](C)c2c1cc(C)c(O)c2O [Compound 1, 7,8,18-trihydroxyserrulat-14-ene]
EC50 [1]: 3.2 µM
GI50 [1]: 3.18 µM
IC50 [1]: 3.2 µM
GI50 (NCI-H295R, Endocrine - Adrenal gland): 13.5 µM
EC50 [2]: 12.1 µM
GI50 [2]: 11.7 µM
IC50 [2]: 12.1 µM
EC50 (NCI-H446, NCIH446, Lung - SCLC): 10.3 µM
GI50 (NCI-H446, NCIH446, Lung - SCLC): 10 µM
IC50 (NCI-H446, NCIH446, Lung - SCLC): 10.3 µM
EC50 [3]: 2.34 µM
GI50 [3]: 2.33 µM
IC50 [3]: 2.34 µM
EC50 (NCI-H508, NCI-H508, Colon): 14.4 µM
GI50 (NCI-H508, NCI-H508, Colon): 14.3 µM
IC50 (NCI-H508, NCI-H508, Colon): 14.4 µM
EC50 [4]: 2.43 µM
GI50 [4]: 2.41 µM
IC50 [4]: 2.43 µM
EC50 [5]: 8.78 µM
GI50 [5]: 8.41 µM
IC50 [5]: 8.78 µM
EC50 [6]: 2.28 µM
GI50 [6]: 2.28 µM
IC50 [6]: 2.29 µM
EC50 (NCI-H747, NCI-H747, Colon): 3.09 µM
GI50 (NCI-H747, NCI-H747, Colon): 3.1 µM
IC50 (NCI-H747, NCI-H747, Colon): 3.11 µM
EC50 [7]: 2.25 µM
GI50 [7]: 2.2 µM
IC50 [7]: 2.25 µM
EC50 (OCUG-1, OCUG-1, Liver): 4.3 µM
GI50 (OCUG-1, OCUG-1, Liver): 4.29 µM
IC50 (OCUG-1, OCUG-1, Liver): 4.3 µM
EC50 (OE19, OE19, Head and Neck): 3.23 µM
GI50 (OE19, OE19, Head and Neck): 3.21 µM
IC50 (OE19, OE19, Head and Neck): 3.23 µM
EC50 (OE21, OE21, Head and Neck): 3.68 µM
GI50 (OE21, OE21, Head and Neck): 3.67 µM
IC50 (OE21, OE21, Head and Neck): 3.68 µM
EC50 [8]: 1.53 µM
GI50 [8]: 1.52 µM
IC50 [8]: 1.57 µM
EC50 (PA-1, Female GU - Ovary): 4.21 µM
GI50 (PA-1, Female GU - Ovary): 4.21 µM
IC50 (PA-1, Female GU - Ovary): 4.21 µM
EC50 (PANC-1, PANC-1, Pancreas): 2.87 µM
GI50 (PANC-1, PANC-1, Pancreas): 2.83 µM
IC50 (PANC-1, PANC-1, Pancreas): 2.87 µM
EC50 (PC-3, Prostate): 3.88 µM
GI50 (PC-3, Prostate): 3.86 µM
IC50 (PC-3, Prostate): 3.88 µM
EC50 (PFSK-1, PFSK-1, CNS - Glioma): 4.32 µM
GI50 (PFSK-1, PFSK-1, CNS - Glioma): 4.31 µM
IC50 (PFSK-1, PFSK-1, CNS - Glioma): 4.33 µM
EC50 (PSN1, PSN-1, Pancreas): 2.32 µM
GI50 (PSN1, PSN-1, Pancreas): 2.32 µM
IC50 (PSN1, PSN-1, Pancreas): 2.32 µM
EC50 (RD, Soft Tissue - Sarcoma): 0.81 µM
GI50 (RD, Soft Tissue - Sarcoma): 0.81 µM
IC50 (RD, Soft Tissue - Sarcoma): 0.81 µM
EC50 (RKO, Colon): 1.69 µM
GI50 (RKO, Colon): 1.69 µM
IC50 (RKO, Colon): 1.69 µM
EC50 (RKOE6, RKOE6, Colon): 1.72 µM
GI50 (RKOE6, RKOE6, Colon): 1.72 µM
IC50 (RKOE6, RKOE6, Colon): 1.72 µM
EC50 (RPMI-6666, RPMI 6666, Lymphoma): 3.53 µM
GI50 (RPMI-6666, RPMI 6666, Lymphoma): 3.44 µM
IC50 (RPMI-6666, RPMI 6666, Lymphoma): 3.53 µM
EC50 [9]: 0.7 µM
GI50 [9]: 0.7 µM
IC50 [9]: 0.7 µM
EC50 (RPMI-8226, RPMI 8226, Myeloma): 0.68 µM
GI50 (RPMI-8226, RPMI 8226, Myeloma): 0.67 µM
IC50 (RPMI-8226, RPMI 8226, Myeloma): 0.68 µM
EC50 (RS4-11, RS4, 11, Leukemia): 1.77 µM
GI50 (RS4-11, RS4, 11, Leukemia): 1.71 µM
IC50 (RS4-11, RS4, 11, Leukemia): 1.77 µM
EC50 (Raji, Lymphoma): 4.6 µM
GI50 (Raji, Lymphoma): 4.59 µM
IC50 (Raji, Lymphoma): 4.6 µM
EC50 (Ramos, Ramos (RA 1), Lymphoma): 2.96 µM
GI50 (Ramos, Ramos (RA 1), Lymphoma): 2.96 µM
IC50 (Ramos, Ramos (RA 1), Lymphoma): 2.96 µM
EC50 [10]: 1.98 µM
GI50 [10]: 2.04 µM
IC50 [10]: 2.1 µM
EC50 (SCC-4, SCC-4, Head and Neck): 4.66 µM
GI50 (SCC-4, SCC-4, Head and Neck): 4.63 µM
IC50 (SCC-4, SCC-4, Head and Neck): 4.72 µM
EC50 (SCC-9, SCC-9, Head and Neck): 3.44 µM
GI50 (SCC-9, SCC-9, Head and Neck): 3.44 µM
IC50 (SCC-9, SCC-9, Head and Neck): 3.45 µM
EC50 (SCC-25, SCC-25, Head and Neck): 3.94 µM
GI50 (SCC-25, SCC-25, Head and Neck): 3.95 µM
IC50 (SCC-25, SCC-25, Head and Neck): 3.96 µM
EC50 (SCaBER, Bladder): 3.12 µM
GI50 (SCaBER, Bladder): 3.1 µM
IC50 (SCaBER, Bladder): 3.12 µM
EC50 (SH-4, Skin (Melanoma)): 1.95 µM
